Target: T1, soluble guanylate cyclase (sGC) expressed by CHO-K1-Rat sGC monoclonal cell line (Rattus norvegicus, UniProt P19686+P20595)
T1 construct: expressed in transfected cells; host or cells: CHO-K1
T1 sequence (P19686 1-690): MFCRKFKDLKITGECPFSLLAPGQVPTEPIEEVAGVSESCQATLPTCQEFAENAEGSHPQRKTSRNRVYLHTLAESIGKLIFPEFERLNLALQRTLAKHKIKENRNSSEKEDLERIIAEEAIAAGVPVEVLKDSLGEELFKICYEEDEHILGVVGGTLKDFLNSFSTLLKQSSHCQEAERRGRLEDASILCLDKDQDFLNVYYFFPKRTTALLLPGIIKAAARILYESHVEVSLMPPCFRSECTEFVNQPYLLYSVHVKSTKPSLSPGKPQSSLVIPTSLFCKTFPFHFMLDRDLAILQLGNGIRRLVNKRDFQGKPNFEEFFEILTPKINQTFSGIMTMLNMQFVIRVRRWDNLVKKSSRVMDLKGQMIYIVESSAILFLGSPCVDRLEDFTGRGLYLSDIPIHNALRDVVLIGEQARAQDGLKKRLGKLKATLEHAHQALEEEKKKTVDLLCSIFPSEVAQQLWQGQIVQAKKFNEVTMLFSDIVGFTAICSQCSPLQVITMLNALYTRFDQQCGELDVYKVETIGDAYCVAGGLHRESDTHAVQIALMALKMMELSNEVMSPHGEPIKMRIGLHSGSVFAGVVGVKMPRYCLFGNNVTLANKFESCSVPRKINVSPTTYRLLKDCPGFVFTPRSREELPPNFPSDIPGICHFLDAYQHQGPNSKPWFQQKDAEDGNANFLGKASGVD
T1 sequence (P20595 1-619): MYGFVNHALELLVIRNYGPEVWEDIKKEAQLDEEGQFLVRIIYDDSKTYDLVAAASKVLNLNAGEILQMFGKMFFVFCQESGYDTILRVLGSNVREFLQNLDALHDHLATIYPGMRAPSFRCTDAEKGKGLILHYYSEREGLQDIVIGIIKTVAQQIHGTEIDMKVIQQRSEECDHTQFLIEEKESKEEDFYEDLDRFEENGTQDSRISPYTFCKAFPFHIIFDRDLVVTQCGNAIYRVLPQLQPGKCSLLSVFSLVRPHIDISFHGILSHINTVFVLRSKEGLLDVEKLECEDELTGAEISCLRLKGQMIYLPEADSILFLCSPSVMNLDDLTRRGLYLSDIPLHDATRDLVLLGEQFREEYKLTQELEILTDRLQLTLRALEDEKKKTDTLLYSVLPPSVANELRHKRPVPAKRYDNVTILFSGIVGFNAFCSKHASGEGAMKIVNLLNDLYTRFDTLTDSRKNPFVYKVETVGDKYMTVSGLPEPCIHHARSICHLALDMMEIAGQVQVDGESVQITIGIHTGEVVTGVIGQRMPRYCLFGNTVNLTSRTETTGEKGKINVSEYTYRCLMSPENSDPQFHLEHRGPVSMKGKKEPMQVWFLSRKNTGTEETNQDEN
Assay: Effect on recombinant guanylate cyclase reporter cell line (CHO-K1-Rat sGC, Cisbio cGMP HTRF)
Format: cell-based
Details: activating soluble guanylate cyclase
Text: Transfection of Soluble Guanylate Cyclase (sGC) gene into CHO-K1 cells and selection of cells with stably and highly expressed sGC: Rat sGCα1 and Rat sGCβ1 Genes were synthesized, and then pcDNA3.1(+)-rat sGCα1 and pcDNA3.1/Hygro (+)-rat sGCβ1 plasmid were constructed; the plasmid was co-transfected into CHO-K1 cells, and a positive clone cell line stably expressing CHO-K1-Rat sGC was selected using the Cisbio cGMP HTRF assay kit.
The activity of the compound on the CHO-K1-Rat sGC monoclonal cell line was determined: The CHO-K1-Rat sGC monoclonal cell line was cultured, and used for test operation at degree of fusion of about 70% to 90%. The cells were resuspended in complete medium after TrypLE digestion; the cells were inoculated in a 384-well (low volume tissues culture treated) cell culture plate at a seeding density of 7500/well in 25 μL of complete medium and incubated at 37° C. in 5% CO2 atmosphere for 20 hours; the test compounds were dissolved and dilute with DMSO to give 10 concentration gradients (2× working concentration); 384-well cell culture plates were centrifugated (200 g) for 3 seconds by inversion at RT, medium was removed; The test compounds in each different concentration gradient and corresponding reagent were added into each cell well according to the detection process of Cisbio cGMP HTRF assay kit. The data were collected with Envision HTRF detector and the EC50 value of each compound in activating soluble guanylate cyclase was calculated.

EC50: 0.37 µM
SMILES: COC(=O)Nc1c(N)nc(-c2nn(Cc3ccccc3F)c3c(F)cccc23)nc1N [Example 10, methyl (4,6-diamino-2-(7-fluoro-1-(2-fluorobenzyl)-1H-indazol-3-yl)pyrimidin-5-yl)carbamate]

— US11242335B2, “Fluorine-substituted indazole compounds and uses thereof” (SUNSHINE LAKE PHARMA CO., LTD., priority 2017, dated 2022)
